Source: patent US10221182B2, “3,3-difluoro-piperidine derivatives as NR2B NMDA receptor antagonists” (Rugen Holdings (Cayman) Limited, priority 2015, dated 2019)
Where two headings read alike, the source gives them in different places.

Tests used:
[1] = molecular target: human NR1/NR2B (Homo sapiens (Human), UniProt Q05586+Q13224); experiment: NR2B antagonist activity, Fluo-4 calcium influx assay in HEK293 cells; assay type: cell-based; details: glutamate 100 μM, glycine 50 μM
Method: (§1) Activation of the NR2A or NR2B subtype of NMDA receptor with glutamate as an agonist and glycine co-agonist on these cells results in calcium influx, which can be monitored with fluorescent indicator Fluo-4.
(§2) For experiments, the cells were seeded onto poly-D-lysine-coated 96-well black plates with clear bottom (Corning) at a density of ˜50,000 cells/well. After overnight culture, the growth medium was removed from the wells and the cells were incubated at 37° C. for 60 min in Hanks buffer containing 4 μM fluo-4-AM (Invitrogen) and 0.1% bovine serum albumin (BSA). After dye-loading, the cells were washed three times with Hanks buffer and incubated for 10 min at room temperature with various concentrations of test compounds prepared in Hanks buffer with 0.1% BSA. The cell plates were placed onto FDSS μCell fluorescence reader (Hamamatsu). After 20 sec reading of background fluorescence, agonist glutamate at final 100 μM and co-agonist glycine at final 50 μM were added to the cells to activate the receptor, and the resulting fluorescence changes were recorded and quantified. Based on the changes in fluorescence intensity, the pharmacological effect of test compounds were analyzed and the IC50 values derived from a non-linear least squares fitting of the concentration-dependent response to a standard logistic equation using Prism (Graphpad, Inc): Amplitude=Max Amplitude/(1+([…])^n).

[2] = molecular target: human NR1/NR2A (Homo sapiens (Human), UniProt Q05586+Q12879); experiment: NR2A antagonist activity, Fluo-4 calcium influx assay in HEK293 cells; assay type: cell-based
Sequence of human NR1/NR2A (Homo sapiens (Human), UniProt Q05586+Q12879) (Q12879 23-1464, other chains not shown): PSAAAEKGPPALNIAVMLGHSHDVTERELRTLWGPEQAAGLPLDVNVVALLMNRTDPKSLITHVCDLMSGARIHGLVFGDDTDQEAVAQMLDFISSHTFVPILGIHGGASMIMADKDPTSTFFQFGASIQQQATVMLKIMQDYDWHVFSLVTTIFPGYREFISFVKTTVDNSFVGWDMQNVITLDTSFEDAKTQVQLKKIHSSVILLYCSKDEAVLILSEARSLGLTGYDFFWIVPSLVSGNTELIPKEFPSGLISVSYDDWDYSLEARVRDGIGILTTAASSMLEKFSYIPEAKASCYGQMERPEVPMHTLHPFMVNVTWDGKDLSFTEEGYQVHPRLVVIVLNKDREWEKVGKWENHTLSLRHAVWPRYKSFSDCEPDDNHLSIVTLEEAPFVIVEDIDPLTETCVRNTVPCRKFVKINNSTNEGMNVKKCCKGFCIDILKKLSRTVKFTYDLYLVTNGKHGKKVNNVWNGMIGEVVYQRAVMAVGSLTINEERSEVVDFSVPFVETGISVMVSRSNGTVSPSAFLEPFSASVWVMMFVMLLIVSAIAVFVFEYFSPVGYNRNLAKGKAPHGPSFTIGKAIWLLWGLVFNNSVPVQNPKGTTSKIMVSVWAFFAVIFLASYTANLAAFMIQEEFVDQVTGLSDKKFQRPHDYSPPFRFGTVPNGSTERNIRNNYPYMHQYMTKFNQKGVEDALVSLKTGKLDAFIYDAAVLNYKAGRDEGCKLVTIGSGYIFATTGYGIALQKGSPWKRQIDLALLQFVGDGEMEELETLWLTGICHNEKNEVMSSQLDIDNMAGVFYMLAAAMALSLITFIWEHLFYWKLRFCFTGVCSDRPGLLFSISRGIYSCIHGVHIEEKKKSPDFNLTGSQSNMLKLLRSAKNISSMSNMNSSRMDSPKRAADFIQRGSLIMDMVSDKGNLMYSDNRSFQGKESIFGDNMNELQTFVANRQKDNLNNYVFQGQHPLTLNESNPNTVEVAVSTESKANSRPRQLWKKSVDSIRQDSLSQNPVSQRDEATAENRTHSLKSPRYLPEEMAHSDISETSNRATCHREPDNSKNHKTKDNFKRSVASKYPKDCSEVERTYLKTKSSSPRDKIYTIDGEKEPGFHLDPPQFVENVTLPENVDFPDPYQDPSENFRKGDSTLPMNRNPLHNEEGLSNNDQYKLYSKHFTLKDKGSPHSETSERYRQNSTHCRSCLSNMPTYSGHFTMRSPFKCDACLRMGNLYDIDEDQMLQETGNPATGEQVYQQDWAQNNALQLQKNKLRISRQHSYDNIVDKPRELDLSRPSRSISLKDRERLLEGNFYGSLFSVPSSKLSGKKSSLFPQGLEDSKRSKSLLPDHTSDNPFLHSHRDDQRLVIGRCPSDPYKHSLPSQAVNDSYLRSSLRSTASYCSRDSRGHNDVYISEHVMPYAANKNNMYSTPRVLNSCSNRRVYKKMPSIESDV
Method: as §1, §2

[3] = molecular target: hERG channel (Homo sapiens (Human), UniProt Q12809); experiment: hERG channel inhibition, whole cell patch clamp in HEK293 cells; details: for hERG @ 10 μM: inhibition at 10 μM
[4] = molecular target: CYP2D6 (Homo sapiens (Human), UniProt P10635); experiment: CYP P450 enzyme inhibition in pooled human liver microsome; details: dextromethorphan 5 μM; for CYP2D6 @ 10 μM: inhibition at 10 μM, pooled HLM; for IC50: CYP2D6 IC50, pooled HLM
Sequence of CYP2D6 (P10635 whole entry): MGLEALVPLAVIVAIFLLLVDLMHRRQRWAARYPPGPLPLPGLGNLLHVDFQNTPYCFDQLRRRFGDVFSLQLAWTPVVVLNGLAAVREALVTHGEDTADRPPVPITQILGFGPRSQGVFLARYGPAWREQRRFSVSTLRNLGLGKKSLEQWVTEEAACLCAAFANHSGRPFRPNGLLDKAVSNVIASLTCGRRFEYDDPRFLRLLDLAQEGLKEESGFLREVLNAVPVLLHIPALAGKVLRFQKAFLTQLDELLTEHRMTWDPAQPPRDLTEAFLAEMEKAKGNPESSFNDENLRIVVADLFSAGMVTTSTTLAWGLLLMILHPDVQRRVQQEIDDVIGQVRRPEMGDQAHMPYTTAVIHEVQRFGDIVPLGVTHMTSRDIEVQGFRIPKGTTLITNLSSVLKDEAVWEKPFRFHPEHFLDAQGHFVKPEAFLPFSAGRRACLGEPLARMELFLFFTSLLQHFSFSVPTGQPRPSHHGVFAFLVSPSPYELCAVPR
Method: Those CYP isoforms and their corresponding probe substrates are as follows: CYP1A2 (phenacetin, 30 μM), CYP2C9 (tolutamide, 100 μM), CYP2C19 (S-mephenytoin, 40 μM), CYP2D6 (dextromethorphan, 5 μM) and CYP3A4 (midazolam, 1 μM). All probe substrates were used at concentrations near or below their Kms. For experiment, a reaction mixture of test compound at 10 uM or in serial dilution, CYP probe substrate described above and 0.2 mg/mL pooled HLM in phosphate buffer, pH 7.4 in a final volume of 200 μL was pre-incubated at 37° C. for 10 minutes in triplicate. The reaction was initiated by addition of NADPH at final concentration of 1 mM. The reaction was terminated after 10 minutes (CYP1A2, CYP2D6 and CYP3A4) or 30 minutes (CYP2C9 and CYP2C19) by addition of 100 μL ice-cold acetonitrile with internal standard (IS). The samples were then centrifuged at 13,000 rpm and the supernatants were injected to LC-MS/MS (Agilent Technologies) to quantify the concentration of the specific metabolites of the probe substrates formed by individual CYP450 isoforms. The inhibition ratio is calculated as: (Mt−M0)/Mwater×100% in which Mt and M0 represent the concentrations of the specific probe substrate metabolite, which was formed by individual CYP450 isoform, at the beginning and end of the reaction in the presence of test compound; while Mwater represents the concentration of the specific metabolite at the end of the reaction in the absence of test compound. Test compound concentration-dependent response data experiments performed in triplicate.

[5] = molecular target: human NR1/NR2A (Homo sapiens (Human), UniProt Q12879); experiment: NR2A antagonist activity, Fluo-4 calcium influx assay in HEK293 cells; assay type: cell-based
Sequence of human NR1/NR2A (Homo sapiens (Human), UniProt Q12879) (Q12879 23-1464, other chains not shown): as the sequence (Q12879 23-1464, other chains not shown) above
Method: as §1, §2

[6] = hNR2B IC50, HEK293 cells expressing NR1/NR2B
[7] = HEK293 cells expressing NR1/NR2B, read-out: hNR2B IC50
[8] = HEK293 cells expressing NR1/NR2A, glutamate 100 μM, glycine 50 μM, read-out: hNR2A IC50
[9] = read-out: hNR2A IC50; HEK293 cells expressing NR1/NR2A; glutamate 100 μM, glycine 50 μM

Sequence of human NR1/NR2B (Q13224 27-1484, other chains not shown): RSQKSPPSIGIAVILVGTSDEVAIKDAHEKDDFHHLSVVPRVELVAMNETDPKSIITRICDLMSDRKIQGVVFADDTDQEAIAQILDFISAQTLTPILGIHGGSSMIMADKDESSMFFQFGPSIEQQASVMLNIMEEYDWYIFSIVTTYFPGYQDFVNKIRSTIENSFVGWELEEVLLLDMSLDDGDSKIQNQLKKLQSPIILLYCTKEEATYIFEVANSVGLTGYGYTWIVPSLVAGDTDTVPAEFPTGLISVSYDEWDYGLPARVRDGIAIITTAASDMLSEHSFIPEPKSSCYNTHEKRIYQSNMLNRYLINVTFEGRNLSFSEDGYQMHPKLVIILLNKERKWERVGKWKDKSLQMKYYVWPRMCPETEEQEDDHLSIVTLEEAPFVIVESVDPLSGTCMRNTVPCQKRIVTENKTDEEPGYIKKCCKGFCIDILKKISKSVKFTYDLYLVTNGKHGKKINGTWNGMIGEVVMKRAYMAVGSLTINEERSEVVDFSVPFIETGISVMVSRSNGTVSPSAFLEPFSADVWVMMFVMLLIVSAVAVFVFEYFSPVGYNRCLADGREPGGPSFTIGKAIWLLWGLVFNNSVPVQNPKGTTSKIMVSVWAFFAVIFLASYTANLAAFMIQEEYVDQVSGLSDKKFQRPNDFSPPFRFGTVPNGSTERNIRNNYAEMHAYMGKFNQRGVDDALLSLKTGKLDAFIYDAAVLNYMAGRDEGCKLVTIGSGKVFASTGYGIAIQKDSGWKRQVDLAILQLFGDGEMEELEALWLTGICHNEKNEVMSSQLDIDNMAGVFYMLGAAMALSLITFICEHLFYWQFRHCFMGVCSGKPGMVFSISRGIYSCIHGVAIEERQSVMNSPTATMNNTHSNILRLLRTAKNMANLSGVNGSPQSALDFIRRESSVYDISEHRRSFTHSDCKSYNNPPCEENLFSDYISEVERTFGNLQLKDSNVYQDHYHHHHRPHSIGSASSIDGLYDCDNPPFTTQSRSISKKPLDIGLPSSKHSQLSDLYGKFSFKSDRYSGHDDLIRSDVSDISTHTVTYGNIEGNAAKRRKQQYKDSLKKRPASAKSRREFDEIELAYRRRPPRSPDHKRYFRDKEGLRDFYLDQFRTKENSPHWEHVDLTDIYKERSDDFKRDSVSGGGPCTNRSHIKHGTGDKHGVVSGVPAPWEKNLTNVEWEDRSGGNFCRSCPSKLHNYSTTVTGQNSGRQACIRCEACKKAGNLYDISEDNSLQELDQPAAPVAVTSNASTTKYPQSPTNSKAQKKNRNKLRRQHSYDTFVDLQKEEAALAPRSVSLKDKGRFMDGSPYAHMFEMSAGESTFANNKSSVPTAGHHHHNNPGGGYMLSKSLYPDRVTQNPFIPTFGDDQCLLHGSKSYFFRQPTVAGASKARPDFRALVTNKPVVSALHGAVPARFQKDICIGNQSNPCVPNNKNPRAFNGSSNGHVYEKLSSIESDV

Compound	IC50 [1, 6] [µM]	IC50 [2] [µM]	CYP2D6 @ 10 μM [4] [%]	hERG @ 10 μM [3] [%]	further results
FC1(F)CN(CCc2ccccc2)CCC1Nc1ncnc2[nH]ncc12 (racemic) [C-1.1, (±)-N-(3,3-difluoro-1-phenethylpiperidin-4-yl)-1H-pyrazolo[3,4-d]pyrimidin-4-amine]	0.0988	> 10			IC50 [3]: 71 µM
Fc1ccc(CCN2CCC(Nc3ncnc4[nH]ncc34)C(F)(F)C2)cc1 (racemic) [C-1.2, (±)-N-(3,3-difluoro-1-(4-fluorophenethyl)piperidin-4-yl)-1H-pyrazolo[3,4-d]-pyrimidin-4-amine]	0.0683	> 10	45.1		IC50 [3]: 16.3 µM
Cc1n[nH]c2ncnc(NC3CCN(CCc4ccc(C(F)(F)F)cc4)CC3(F)F)c12 (racemic) [C-1.34, (±)-N-(3,3-difluoro-1-(4-(trifluoromethyl)phenethyl)piperidin-4-yl)-3-methyl-1H-pyrazolo[3,4-d]pyrimidin-4-amine]		> 10		68	
Fc1ccc(F)c(CCN2CCC(Nc3ncnc4[nH]ncc34)C(F)(F)C2)c1 (racemic) [C-1.35, (±)-N-(1-(2,5-difluorophenethyl)-3,3-difluoropiperidin-4-yl)-1H-pyrazolo[3,4-d]-pyrimidin-4-amine]	0.329	> 10		17	
FC(F)(F)c1cccc(CCN2CCC(Nc3ncnc4[nH]ncc34)C(F)(F)C2)c1 (racemic) [C-1.36]		> 10	27.9	56	
FC(F)(F)c1ccc(CCN2CCC(Nc3ncnc4[nH]ccc34)C(F)(F)C2)cc1 (racemic) [C-2.5, (±)-N-(3,3-difluoro-1-(4-(trifluoromethyl)phenethyl)piperidin-4-yl)-7H-pyrrolo-[2,3-d]pyrimidin-4-amine]				60	IC50 [1, 7]: 0.105 µM; IC50 [2, 8]: > 10 µM
Cc1ccc(CCN2CCC(Nc3ncnc4[nH]ncc34)C(F)(F)C2)cn1 (racemic) [C-3.4, (±)-N-(3,3-difluoro-1-(2-(6-methylpyridin-3-yl)ethyl)piperidin-4-yl)-1H-pyrazolo[3,4-d]pyrimidin-4-amine]	2.27	> 10		18	
FC(F)(F)c1ccc(CCN2CCC(Nc3ncnc4[nH]ncc34)C(F)(F)C2)cn1 (racemic) [C-3.5, (±)-N-(3,3-difluoro-1-(2-(6-(trifluoromethyl)pyridin-3-yl)ethyl)piperidin-4-yl)-1H-pyrazolo[3,4-d]pyrimidin-4-amine]				23	IC50 [1, 7]: 0.822 µM; IC50 [2, 8]: > 10 µM
FC(F)(F)c1ccc(CCN2CCC(Nc3ncnc4[nH]ccc34)C(F)(F)C2)cn1 (racemic) [C-4.5, (±)-N-(3,3-difluoro-1-(2-(6-(trifluoromethyl)pyridin-3-yl)ethyl)piperidin-4-yl)-7H-pyrrolo[2,3-d]pyrimidin-4-amine]				24	IC50 [1, 7]: 1.74 µM; IC50 [2, 8]: > 10 µM
FC1(F)CN(CCc2ccc(Cl)cc2)CCC1Nc1ncnc2[nH]ncc12 (single isomer, unassigned) [E1-1.3, (R*)-N-(1-(4-chlorophenethyl)-3,3-difluoropiperidin-4-yl)-1H-pyrazolo[3,4-d]-pyrimidin-4-amine]	0.025	> 10	21.5	58	
Cc1ccc(CCN2CCC(Nc3ncnc4[nH]ncc34)C(F)(F)C2)cc1 (single isomer, unassigned) [E1-1.4, (R*)-N-(3,3-difluoro-1-(4-methylphenethyl)piperidin-4-yl)-1H-pyrazolo[3,4-d]-pyrimidin-4-amine]	0.0185	> 10			
FC(F)c1ccc(CCN2CCC(Nc3ncnc4[nH]ncc34)C(F)(F)C2)cc1 (single isomer, unassigned) [E1-1.6, (R*)-N-(1-(4-(difluoromethyl)phenethyl)-3,3-difluoropiperidin-4-yl)-1H-pyrazolo-[3,4-d]pyrimidin-4-amine]		> 10	24.4	63	IC50 ([3]; hERG IC50): 3.5 µM
FCc1ccc(CCN2CCC(Nc3ncnc4[nH]ncc34)C(F)(F)C2)cc1 (single isomer, unassigned) [E1-1.7, (R*)-N-(3,3-difluoro-1-(4-(fluoromethyl)phenethyl)piperidin-4-yl)-1H-pyrazolo[3,4-d]-pyrimidin-4-amine]	0.0224	> 10	23.2	36	
FC(F)(F)Oc1ccc(CCN2CCC(Nc3ncnc4[nH]ncc34)C(F)(F)C2)cc1 (single isomer, unassigned) [E1-1.11, (R*)-N-(3,3-difluoro-1-(4-(trifluoromethoxy)phenethyl)piperidin-4-yl)-1H-pyrazolo[3,4-d]pyrimidin-4-amine]		> 10			
FC(F)Oc1ccc(CCN2CCC(Nc3ncnc4[nH]ncc34)C(F)(F)C2)cc1 (single isomer, unassigned) [E1-1.12, (R*)-N-(1-(4-(difluoromethoxy)phenethyl)-3,3-difluoropiperidin-4-yl)-1H-pyrazolo[3,4-d]pyrimidin-4-amine]	0.0838	> 10		79	
Fc1cc(Cl)ccc1CCN1CCC(Nc2ncnc3[nH]ncc23)C(F)(F)C1 (single isomer, unassigned) [E1-1.16, (R*)-N-(1-(4-chloro-2-fluorophenethyl)-3,3-difluoropiperidin-4-yl)-1H-pyrazolo-[3,4-d]pyrimidin-4-amine]	0.0279	> 10	23.2	47	
FC1(F)CN(CCc2ccc(Cl)cc2)CCC1Nc1ncnc2[nH]ncc12 (single isomer, unassigned) [E2-1.3, (S*)-N-(1-(4-chlorophenethyl)-3,3-difluoropiperidin-4-yl)-1H-pyrazolo[3,4-d]pyrimidin-4-amine]	0.0317		27.6	64	IC50 [5, 9]: > 10 µM
Cc1ccc(CCN2CCC(Nc3ncnc4[nH]ncc34)C(F)(F)C2)cc1 (single isomer, unassigned) [E2-1.4, (S*)-N-(3,3-difluoro-1-(4-methylphenethyl)piperidin-4-yl)-1H-pyrazolo[3,4-d]-pyrimidin-4-amine]	0.0219				IC50 [5, 9]: > 10 µM
FC(F)c1ccc(CCN2CCC(Nc3ncnc4[nH]ncc34)C(F)(F)C2)cc1 (single isomer, unassigned) [E2-1.6, (S*)-N-(1-(4-(difluoromethyl)phenethyl)-3,3-difluoropiperidin-4-yl)-1H-pyrazolo-[3,4-d]-pyrimidin-4-amine]			37.1	70	IC50 [5, 9]: > 10 µM
FCc1ccc(CCN2CCC(Nc3ncnc4[nH]ncc34)C(F)(F)C2)cc1 (single isomer, unassigned) [E2-1.7, (S*)-N-(3,3-difluoro-1-(4-(fluoromethyl)phenethyl)piperidin-4-yl)-1H-pyrazolo-[3,4-d]-pyrimidin-4-amine]	0.0381			49	IC50 [5, 9]: > 10 µM
Fc1cc(Cl)ccc1CCN1CCC(Nc2ncnc3[nH]ncc23)C(F)(F)C1 (single isomer, unassigned) [E2-1.16, (S*)-N-(1-(4-chloro-2-fluorophenethyl)-3,3-difluoropiperidin-4-yl)-1H-pyrazolo-[3,4-d]pyrimidin-4-amine]	0.0619			64	IC50 [5, 9]: > 10 µM
FC(F)(F)c1ccc(CCN2CCC(Nc3ncnc4[nH]ncc34)C(F)(F)C2)cc1 (single isomer, unassigned; (+)) [E1-1.5, (+)-(R*)-N-(3,3-difluoro-1-(4-(trifluoromethyl)phenethyl)piperidin-4-yl)-1H-pyrazolo[3,4-d]pyrimidin-4-amine]		> 10	27.6		IC50 ([3]; hERG IC50): 9.8 µM; IC50 [4]: 34.1 µM
FC(F)(F)c1ccc(CCN2CCC(Nc3ncnc4[nH]ncc34)C(F)(F)C2)cc1 (single isomer, unassigned; (-)) [E2-1.5, (−)-(S*)-N-(3,3-difluoro-1-(4-(trifluoromethyl)phenethyl)piperidin-4-yl)-1H-pyrazolo[3,4-d]pyrimidin-4-amine]			37.9		IC50 [5, 9]: > 10 µM; IC50 ([3]; hERG IC50): 7.6 µM; IC50 [4]: 15.2 µM
FC(F)(F)c1ccc(C(F)(F)CN2CCC(Nc3ncnc4[nH]ncc34)CC2)cc1 [LX-1, reference compound]			93		
(±)-N-(1-(3,4-difluorophenethyl)-3,3-difluoropiperidin-4-yl)-1H-pyrazolo-[3,4-d]-pyrimidin-4-amine [C-1.15]				37	IC50 [1, 7]: 0.0789 µM; IC50 ([5]; HEK293 cells expressing NR1/NR2A; glutamate 100 μM, glycine 50 μM; read-out: hNR2A IC50): > 10 µM
